Legend:
Test in all cases: relative viability (nuclei count vs DMSO), 5 days (fraction); higher = more cells survive
VX-11e + OSI-027 = compound: CC1=CN=C(N=C1C2=CNC(=C2)C(=O)N[C@H](CO)C3=CC(=CC=C3)Cl)NC4=C(C=C(C=C4)F)Cl [VX-11e] + COc1cccc2cc(-c3nc([C@H]4CC[C@H](C(=O)O)CC4)n4ncnc(N)c34)[nH]c12 [OSI-027] (partner 0.5 µM)
Method in brief: (§1)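 Lung cancer cell lines, seeded in 1536-well plates, were treated the following day by pin tool with a single drug or with five library-drug doses (not always all listed) in √10 steps on top of a fixed anchor-drug dose. Cells were fixed and nuclei stained in one step after 5 days, and nuclei were counted. Relative viability is the nuclei count for treated wells divided by that for vehicle wells, reported as medians of duplicate plates.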

VX-11e + Trametinib = compound: CC1=CN=C(N=C1C2=CNC(=C2)C(=O)N[C@H](CO)C3=CC(=CC=C3)Cl)NC4=C(C=C(C=C4)F)Cl [VX-11e] + CC(=O)Nc1cccc(-n2c(=O)n(C3CC3)c(=O)c3c(Nc4ccc(I)cc4F)n(C)c(=O)c(C)c32)c1 [Trametinib] (partner 0.02 µM)
Method in brief: as §1

VX-11e + Phenformin = compound: CC1=CN=C(N=C1C2=CNC(=C2)C(=O)N[C@H](CO)C3=CC(=CC=C3)Cl)NC4=C(C=C(C=C4)F)Cl [VX-11e] + N=C(N)NC(=N)NCCc1ccccc1 [Phenformin] (partner 250 µM)
Method in brief: as §1

VX-11e + Crizotinib = compound: CC1=CN=C(N=C1C2=CNC(=C2)C(=O)N[C@H](CO)C3=CC(=CC=C3)Cl)NC4=C(C=C(C=C4)F)Cl [VX-11e] + C[C@@H](Oc1cc(-c2cnn(C3CCNCC3)c2)cnc1N)c1c(Cl)ccc(F)c1Cl [Crizotinib] (partner 1 µM)
Method in brief: as §1

Cell Line: NCI-H1944
- relative viability (VX-11e + OSI-027; first compound 0.04 µM): 0.342
- relative viability (VX-11e + OSI-027; first compound 0.1265 µM): 0.343
- relative viability (VX-11e + OSI-027; first compound 1.265 µM): 0.309
- relative viability (VX-11e + OSI-027; first compound 4 µM): 0.259
- relative viability (VX-11e + Trametinib; first compound 0.04 µM): 0.468
- relative viability (VX-11e + Trametinib; first compound 0.1265 µM): 0.441
- relative viability (VX-11e + Trametinib; first compound 0.4 µM): 0.343
- relative viability (VX-11e + Trametinib; first compound 1.265 µM): 0.347
- relative viability (VX-11e + Trametinib; first compound 4 µM): 0.282
- relative viability (VX-11e + Phenformin; first compound 0.04 µM): 0.194
- relative viability (VX-11e + Phenformin; first compound 0.1265 µM): 0.193
- relative viability (VX-11e + Phenformin; first compound 1.265 µM): 0.218
- relative viability (VX-11e + Phenformin; first compound 4 µM): 0.168
- relative viability (VX-11e + Crizotinib; first compound 0.04 µM): 1.17
- relative viability (VX-11e + Crizotinib; first compound 0.1265 µM): 1.02
- relative viability (VX-11e + Crizotinib; first compound 0.4 µM): 0.942
- relative viability (VX-11e + Crizotinib; first compound 1.265 µM): 0.905
- relative viability (VX-11e + Crizotinib; first compound 4 µM): 0.583

Cell Line: NCI-H1975
- relative viability (VX-11e + OSI-027; first compound 0.04 µM): 0.695
- relative viability (VX-11e + OSI-027; first compound 0.1265 µM): 0.499
- relative viability (VX-11e + OSI-027; first compound 0.4 µM): 0.291
- relative viability (VX-11e + OSI-027; first compound 1.265 µM): 0.415
- relative viability (VX-11e + OSI-027; first compound 4 µM): 0.162
- relative viability (VX-11e + Trametinib; first compound 0.04 µM): 0.341
- relative viability (VX-11e + Trametinib; first compound 0.1265 µM): 0.295
- relative viability (VX-11e + Trametinib; first compound 0.4 µM): 0.171
- relative viability (VX-11e + Trametinib; first compound 1.265 µM): 0.255
- relative viability (VX-11e + Trametinib; first compound 4 µM): 0.21
- relative viability (VX-11e + Phenformin; first compound 0.04 µM): 0.443
- relative viability (VX-11e + Phenformin; first compound 0.1265 µM): 0.362
- relative viability (VX-11e + Phenformin; first compound 0.4 µM): 0.261
- relative viability (VX-11e + Phenformin; first compound 1.265 µM): 0.393
- relative viability (VX-11e + Phenformin; first compound 4 µM): 0.199
- relative viability (VX-11e + Crizotinib; first compound 0.04 µM): 0.972
- relative viability (VX-11e + Crizotinib; first compound 0.1265 µM): 0.962
- relative viability (VX-11e + Crizotinib; first compound 0.4 µM): 0.95
- relative viability (VX-11e + Crizotinib; first compound 1.265 µM): 0.963
- relative viability (VX-11e + Crizotinib; first compound 4 µM): 0.407

Cell Line: NCI-H1993
- relative viability (VX-11e + OSI-027; first compound 0.04 µM): 0.556
- relative viability (VX-11e + OSI-027; first compound 0.1265 µM): 0.538
- relative viability (VX-11e + OSI-027; first compound 0.4 µM): 0.557
- relative viability (VX-11e + OSI-027; first compound 1.265 µM): 0.605
- relative viability (VX-11e + OSI-027; first compound 4 µM): 0.677
- relative viability (VX-11e + Trametinib; first compound 0.1265 µM): 0.493
- relative viability (VX-11e + Trametinib; first compound 0.4 µM): 0.576
- relative viability (VX-11e + Trametinib; first compound 1.265 µM): 0.506
- relative viability (VX-11e + Trametinib; first compound 4 µM): 0.451
- relative viability (VX-11e + Phenformin; first compound 0.04 µM): 0.547
- relative viability (VX-11e + Phenformin; first compound 0.1265 µM): 0.49
- relative viability (VX-11e + Phenformin; first compound 0.4 µM): 0.484
- relative viability (VX-11e + Phenformin; first compound 1.265 µM): 0.517
- relative viability (VX-11e + Phenformin; first compound 4 µM): 0.518
- relative viability (VX-11e + Crizotinib; first compound 0.1265 µM): 0.804
- relative viability (VX-11e + Crizotinib; first compound 1.265 µM): 0.752
- relative viability (VX-11e + Crizotinib; first compound 4 µM): 0.647

Cell Line: NCI-H2009
- relative viability (VX-11e + OSI-027; first compound 0.04 µM): 0.637
- relative viability (VX-11e + OSI-027; first compound 0.1265 µM): 0.665
- relative viability (VX-11e + OSI-027; first compound 0.4 µM): 0.559
- relative viability (VX-11e + OSI-027; first compound 1.265 µM): 0.226
- relative viability (VX-11e + OSI-027; first compound 4 µM): 0.168
- relative viability (VX-11e + Trametinib; first compound 0.04 µM): 0.22
- relative viability (VX-11e + Trametinib; first compound 0.1265 µM): 0.209
- relative viability (VX-11e + Trametinib; first compound 0.4 µM): 0.247
- relative viability (VX-11e + Trametinib; first compound 1.265 µM): 0.162
- relative viability (VX-11e + Trametinib; first compound 4 µM): 0.169
- relative viability (VX-11e + Phenformin; first compound 0.04 µM): 0.575
- relative viability (VX-11e + Phenformin; first compound 0.1265 µM): 0.535
- relative viability (VX-11e + Phenformin; first compound 0.4 µM): 0.481
- relative viability (VX-11e + Phenformin; first compound 1.265 µM): 0.251
- relative viability (VX-11e + Phenformin; first compound 4 µM): 0.178
- relative viability (VX-11e + Crizotinib; first compound 0.04 µM): 1.07
- relative viability (VX-11e + Crizotinib; first compound 0.1265 µM): 1.04
- relative viability (VX-11e + Crizotinib; first compound 0.4 µM): 0.933
- relative viability (VX-11e + Crizotinib; first compound 1.265 µM): 0.565
- relative viability (VX-11e + Crizotinib; first compound 4 µM): 0.364

Reference: the supplement of paper PMC10307832
